Results as given in publication PMC6269737, “Effect of Honokiol on Cytochrome P450 and UDP-Glucuronosyltransferase Enzyme Activities in Human Liver Microsomes” (Molecules, 2013).
Entries after “also recorded” stand apart in the source; their conditions may differ. Like-named read-outs stand apart in the source and are kept apart here.

Legend:
[1] = biological target: T1, CYP1A2 (Homo sapiens, UniProt P05177); assay: CYP1A2-catalyzed phenacetin O-deethylation inhibition in pooled human liver microsomes (LC-MS/MS); assay type: in vitro ADME
T1 sequence (P05177 1-516): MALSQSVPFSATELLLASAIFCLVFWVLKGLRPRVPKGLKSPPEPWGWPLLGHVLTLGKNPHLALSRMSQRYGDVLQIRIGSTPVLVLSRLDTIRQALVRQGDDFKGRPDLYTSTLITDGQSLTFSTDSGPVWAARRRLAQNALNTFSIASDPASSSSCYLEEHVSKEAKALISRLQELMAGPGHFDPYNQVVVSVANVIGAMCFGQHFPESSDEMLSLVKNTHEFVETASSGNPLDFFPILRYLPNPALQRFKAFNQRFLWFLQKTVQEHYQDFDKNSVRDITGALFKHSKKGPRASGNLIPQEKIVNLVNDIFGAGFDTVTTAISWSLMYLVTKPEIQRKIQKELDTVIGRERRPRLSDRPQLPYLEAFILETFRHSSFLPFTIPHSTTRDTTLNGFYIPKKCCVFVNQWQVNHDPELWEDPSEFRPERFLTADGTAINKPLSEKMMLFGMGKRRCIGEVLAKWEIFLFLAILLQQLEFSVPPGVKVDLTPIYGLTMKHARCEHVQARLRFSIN
Procedure: (§1) The inhibitory potential (IC50 values) of honokiol on CYP activities was evaluated in pooled human liver microsomes using liquid chromatography-tandem mass spectrometry (LC-MS/MS). […] Honokiol was dissolved in acetonitrile. […] After a 3 min preincubation at 37 °C, the reactions were initiated by addition of an NADP generating system and incubated for 15 min at 37 °C in a shaking water bath. The reaction was then stopped by placement of the tubes on ice and adding 100 μL of ice-cold methanol containing internal standards (^13C2, ^15N-acetaminophen for acetaminophen and N-deethylamodiaquine, and d9-1-hydroxybufuralol for 4-hydroxydiclofenac, 4-hydroxybupropion, 7-hydroxycoumarin, 4-hydroxymephenytoin, 1'-hydroxybufuralol, and 1'-hydroxymidazolam). The incubation mixtures were then centrifuged at 13,000 × g for 4 min. All incubations were performed in triplicate, and average values were used.
(§2) The reaction was initiated by the addition of the cocktail containing seven CYP probe substrates and bupropion.
(§3) The metabolites formed from the seven CYP cocktail substrates were simultaneously determined according to our previously described LC-MS/MS method with minor modification; the concentration of 4-hydroxybupropion for CYP2B6 activity was quantified separately by LC-MS/MS. A tandem mass spectrometer (TSQ Quantum Access, Thermo Scientific, San Jose, CA, USA) coupled with a Nanospace SI-2 LC system (Tokyo, Japan) was used. The column and autosampler temperatures were 50 °C and 6 °C, respectively. The mass spectrometer was equipped with an electrospray ionization (ESI) source and operated in positive ion mode. The ESI source settings for ionization of the metabolites were as follows: capillary voltage, 4200 V; vaporizer temperature, 350 °C; capillary temperature 330 °C; sheath gas pressure, 35 psi; auxiliary gas pressure, 15 psi. Quantification was performed by selected reaction monitoring (SRM) of [M+H]^+ ions and the related product ions for each metabolite. […] Analytical data were processed using Xcalibur® software (Thermo Scientific).
(§4) The incubation mixtures were centrifuged at 13,000 × g for 4 min, and the supernatants were diluted as follows: dilution of 20 μL supernatant with 180 μL of 25% methanol for CYP2C8; dilution of 50 μL supernatant with 50 μL of water for CYP2C9, CYP2C19, CYP2D6, and CYP1A2; and dilution of 20 μL supernatant with 80 μL of water for CYP2B6. Aliquots (5 μL) of the diluted supernatants were then analyzed by LC-MS/MS.
(§5) The apparent kinetic parameters for inhibitory potential (Ki values) were estimated from the fitted curves using Enzyme Kinetics Ver. 1.1 software (Systat Software Inc.).

[2] = biological target: T2, CYP2B6 (Homo sapiens, UniProt P20813); assay: biochemical; conditions: for IC50: IC50 (μM) of honokiol, Bupropion hydroxylation
T2 sequence (P20813 1-491): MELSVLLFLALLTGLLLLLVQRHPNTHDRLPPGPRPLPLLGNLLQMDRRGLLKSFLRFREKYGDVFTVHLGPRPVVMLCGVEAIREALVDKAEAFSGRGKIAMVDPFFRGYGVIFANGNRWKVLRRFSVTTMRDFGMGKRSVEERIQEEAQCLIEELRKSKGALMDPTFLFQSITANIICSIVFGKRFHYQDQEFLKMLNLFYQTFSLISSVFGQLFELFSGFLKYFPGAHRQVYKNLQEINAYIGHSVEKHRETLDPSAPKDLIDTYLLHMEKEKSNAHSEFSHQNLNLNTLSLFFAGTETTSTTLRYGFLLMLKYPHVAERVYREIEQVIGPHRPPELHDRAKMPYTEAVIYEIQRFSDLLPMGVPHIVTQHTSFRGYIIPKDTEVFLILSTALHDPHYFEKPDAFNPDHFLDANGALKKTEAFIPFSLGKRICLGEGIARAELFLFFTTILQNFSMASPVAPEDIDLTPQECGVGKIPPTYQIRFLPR
Procedure: as §1, §2, §3, §4, §5

[3] = biological target: CYP2C19 (Homo sapiens, UniProt P33261); assay: biochemical; conditions: for IC50: IC50 (μM) of honokiol, S-Mephenytoin 4'-hydroxylation
Procedure: as §1, §2, §3, §4, §5

[4] = biological target: T3, CYP2C8 (Homo sapiens, UniProt P10632); assay: biochemical; conditions: for IC50: IC50 (μM) of honokiol, Amodiaquine N-deethylation
T3 sequence (P10632 1-490): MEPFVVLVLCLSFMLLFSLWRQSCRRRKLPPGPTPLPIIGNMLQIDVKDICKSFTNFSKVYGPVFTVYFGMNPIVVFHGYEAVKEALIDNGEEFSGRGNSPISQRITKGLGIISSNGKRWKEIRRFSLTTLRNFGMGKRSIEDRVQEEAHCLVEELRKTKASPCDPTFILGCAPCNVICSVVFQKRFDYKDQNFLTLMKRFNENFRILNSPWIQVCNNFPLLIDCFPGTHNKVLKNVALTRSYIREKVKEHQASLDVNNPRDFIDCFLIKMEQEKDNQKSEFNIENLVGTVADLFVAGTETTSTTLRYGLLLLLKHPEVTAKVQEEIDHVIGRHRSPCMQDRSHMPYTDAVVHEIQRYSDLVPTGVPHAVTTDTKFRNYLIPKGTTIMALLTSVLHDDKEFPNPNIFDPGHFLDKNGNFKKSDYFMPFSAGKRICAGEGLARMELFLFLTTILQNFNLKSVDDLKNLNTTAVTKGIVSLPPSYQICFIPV
Procedure: as §1, §2, §3, §4, §5

[5] = biological target: CYP2C9 (Homo sapiens, UniProt P11712); assay: biochemical; conditions: for IC50: IC50 (μM) of honokiol, Diclofenac 4-hydroxylation
Procedure: as §1, §2, §3, §4, §5

[6] = biological target: CYP2D6 (Homo sapiens, UniProt P10635); assay: biochemical; conditions: for IC50: IC50 (μM) of honokiol, Bufuralol 1'-hydroxylation
Procedure: as §1, §2, §3, §4, §5

[7] = with preincubation, 30 min preincubation with NADPH

Chain of CYP2C19 (P33261 whole entry): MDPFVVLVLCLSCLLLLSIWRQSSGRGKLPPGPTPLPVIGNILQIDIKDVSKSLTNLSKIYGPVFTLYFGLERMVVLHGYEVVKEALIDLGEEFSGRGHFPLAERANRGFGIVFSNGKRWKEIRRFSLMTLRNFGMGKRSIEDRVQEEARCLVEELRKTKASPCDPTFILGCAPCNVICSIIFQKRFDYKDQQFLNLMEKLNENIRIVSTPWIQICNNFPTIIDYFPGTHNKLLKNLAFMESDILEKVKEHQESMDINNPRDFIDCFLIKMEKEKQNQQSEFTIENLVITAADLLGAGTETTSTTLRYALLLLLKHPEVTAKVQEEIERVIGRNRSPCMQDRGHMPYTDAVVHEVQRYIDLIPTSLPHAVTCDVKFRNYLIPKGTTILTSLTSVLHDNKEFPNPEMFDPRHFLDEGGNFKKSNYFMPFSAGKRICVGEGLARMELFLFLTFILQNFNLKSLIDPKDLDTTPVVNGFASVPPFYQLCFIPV
Chain of CYP2C9 (P11712 whole entry): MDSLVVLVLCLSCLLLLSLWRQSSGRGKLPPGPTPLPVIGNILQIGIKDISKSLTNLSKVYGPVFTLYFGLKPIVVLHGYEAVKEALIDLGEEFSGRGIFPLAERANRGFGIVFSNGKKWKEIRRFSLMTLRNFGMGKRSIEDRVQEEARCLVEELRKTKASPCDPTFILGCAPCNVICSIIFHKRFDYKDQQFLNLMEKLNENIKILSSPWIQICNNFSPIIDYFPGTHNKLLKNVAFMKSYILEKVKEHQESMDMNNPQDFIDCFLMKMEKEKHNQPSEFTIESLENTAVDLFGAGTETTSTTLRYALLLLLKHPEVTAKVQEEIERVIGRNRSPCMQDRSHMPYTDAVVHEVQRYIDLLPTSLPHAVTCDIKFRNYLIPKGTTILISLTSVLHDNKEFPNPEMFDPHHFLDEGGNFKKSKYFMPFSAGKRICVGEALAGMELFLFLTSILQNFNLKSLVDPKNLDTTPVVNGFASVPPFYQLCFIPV
Chain of CYP2D6 (P10635 whole entry): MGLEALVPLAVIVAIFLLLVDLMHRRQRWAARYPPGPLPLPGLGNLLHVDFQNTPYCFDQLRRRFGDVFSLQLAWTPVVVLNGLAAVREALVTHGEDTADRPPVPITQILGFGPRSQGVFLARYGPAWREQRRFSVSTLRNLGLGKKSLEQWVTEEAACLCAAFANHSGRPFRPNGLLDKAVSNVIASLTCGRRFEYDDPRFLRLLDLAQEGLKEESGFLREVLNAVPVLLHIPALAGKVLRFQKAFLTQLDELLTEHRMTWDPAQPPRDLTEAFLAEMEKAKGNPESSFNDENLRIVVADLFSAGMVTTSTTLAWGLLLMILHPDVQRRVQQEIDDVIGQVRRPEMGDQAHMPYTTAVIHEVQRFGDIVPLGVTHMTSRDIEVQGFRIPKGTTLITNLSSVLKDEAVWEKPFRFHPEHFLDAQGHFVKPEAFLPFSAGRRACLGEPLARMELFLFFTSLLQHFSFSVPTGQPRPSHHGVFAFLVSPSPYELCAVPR

C=CCc1ccc(O)c(-c2ccc(O)c(CC=C)c2)c1 [honokiol, 2-(4-hydroxy-3-prop-2-enyl-phenyl)-4-prop-2-enyl-phenol]
IC50 ([1]; 50 μM phenacetin (cocktail), pooled human liver microsomes (H161), read-out: IC50 (μM) of honokiol, no preincubation): 2.1 µM
Ki ([1]; 10–80 μM phenacetin, pooled HLM (H161)): 1200 nM
IC50 ([1]; 30 min preincubation in the presence of NADPH, pooled HLM (H161), read-out: IC50 (μM) of honokiol, with preincubation): 4.7 µM
Inhibition mode ([1]; pooled HLM (H161)): noncompetitively; also recorded: noncompetitive
Ki [2]: 17.5 µM
IC50 ([2]; no preincubation, 50 μM bupropion, pooled HLM (H161)): 13.8 µM
IC50 [2, 7]: 20.8 µM
Ki [3]: 570 nM
IC50 ([3]; no preincubation, 100 μM [S]-mephenytoin, pooled HLM (H161)): 2.2 µM
IC50 [3, 7]: 2.9 µM
Ki [4]: 4.9 µM
IC50 ([4]; no preincubation, 2.5 μM amodiaquine, pooled HLM (H161)): 8.9 µM
IC50 [4, 7]: 15.5 µM
Ki [5]: 540 nM
IC50 ([5]; no preincubation, 10 μM diclofenac, pooled HLM (H161)): 4.1 µM
IC50 [5, 7]: 3.9 µM
Ki [6]: 12 µM
IC50 ([6]; no preincubation, 5.0 μM bufuralol, pooled HLM (H161)): 14 µM
IC50 [6, 7]: 38.1 µM
